In patent US8134015B2, “Compound inhibiting in vivo phosphorous transport and medicine containing the same” (Kyowa Hakko Kirin Co., Ltd., priority 2003, dated 2012):
Counter-ions that a name gives are not always drawn.

target: T1, rat NaPi-2b (Rattus norvegicus, UniProt Q9JJ09); test: Sodium-dependent phosphate uptake of Xenopus oocytes which expressed NaPi-2b (32P); assay type: cell-based; conditions: Xenopus oocytes expressing rat NaPi-2b, 32P radioactive phosphorus; read-out: IC50 (phosphate uptake inhibitory activity)
T1 construct: expressed in transfected cells; host or cells: Xenopus oocytes injected with cRNA
T1 sequence (Q9JJ09 1-695): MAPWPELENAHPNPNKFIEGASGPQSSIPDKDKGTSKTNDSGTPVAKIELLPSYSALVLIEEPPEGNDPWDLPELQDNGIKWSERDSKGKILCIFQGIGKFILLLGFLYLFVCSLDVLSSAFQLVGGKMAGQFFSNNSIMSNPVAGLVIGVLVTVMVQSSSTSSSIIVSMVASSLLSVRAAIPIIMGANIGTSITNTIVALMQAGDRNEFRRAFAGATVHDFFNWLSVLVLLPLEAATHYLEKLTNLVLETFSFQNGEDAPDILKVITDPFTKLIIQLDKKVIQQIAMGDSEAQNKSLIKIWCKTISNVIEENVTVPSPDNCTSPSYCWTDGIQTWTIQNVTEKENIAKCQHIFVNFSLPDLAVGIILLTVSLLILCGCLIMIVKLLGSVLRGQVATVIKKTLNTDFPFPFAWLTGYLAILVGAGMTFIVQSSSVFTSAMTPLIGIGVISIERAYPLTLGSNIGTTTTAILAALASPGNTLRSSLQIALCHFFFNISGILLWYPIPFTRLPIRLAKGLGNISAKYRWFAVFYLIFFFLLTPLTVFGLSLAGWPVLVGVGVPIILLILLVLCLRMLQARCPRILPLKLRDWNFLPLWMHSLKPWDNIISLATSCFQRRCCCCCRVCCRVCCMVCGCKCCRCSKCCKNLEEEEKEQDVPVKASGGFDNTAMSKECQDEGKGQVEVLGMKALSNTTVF
Summary of the method: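 Rat small-intestine NaPi-2b cRNA injected into Xenopus oocytes, expressed for 2 days. Sodium-dependent phosphate uptake measured with 32P; % inhibition at 300 and 100 μM taken from the same inhibition curve.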

First: Cc1ccc(/C=N/NC(=O)c2c(C)csc2NC(=O)c2cccc(CN(CC(C)O)CC(C)O)c2)cc1 (stereo not shown) [Compound 588, 3-{[Bis-(2-hydroxy-propyl)-amino]-methyl}-N-[4-methyl-3-(4-methyl-benzylidene-hydrazinocarbonyl)-thiophen-2-yl]-benzamide]
Second: Cc1ccc(/C=N/NC(=O)c2c(C)csc2NC(=O)c2cccc(CN3CCC(O)CC3)c2)cc1 [Compound 594, 3-(4-Hydroxy-piperidin-1-ylmethyl)-N-[4-methyl-3-(4-methyl-benzylidene-hydrazinocarbonyl)-thiophen-2-yl]-benzamide]
The IC50 of the first is 2.6-fold higher: 9.33 µM for the first, 3.6 µM for the second. The second is the more potent here.

First: O=C(Nc1cscc1C(=O)N/N=C/c1ccc(Cl)c(C(F)(F)F)c1)c1cccc(CN2CCN(CCO)CC2)c1 [Compound 983, N-[4-(4-Chloro-3-trifluoromethyl-benzylidene-hydrazinocarbonyl)-thiophen-3-yl]-3-[4-(2-hydroxy-ethyl)-piperazin-1-ylmethyl]-benzamide]
Second: Cc1csc(NC(=O)c2cccc(CN3CCC(O)CC3)c2)c1C(=O)N/N=C/c1ccc(Cl)c(C(F)(F)F)c1 [Compound 597, N-[3-(4-Chloro-3-trifluoromethyl-benzylidene-hydrazinocarbonyl)-4-methyl-thiophen-2-yl]-3-(4-hydroxy-piperidin-1-ylmethyl)-benzamide]
The IC50 of the first is 5.7-fold higher: 8.31 µM for the first, 1.47 µM for the second.

`Cc1ccc(/C=N/NC(=O)c2cc(Br)ccc2NC(=O)c2ccc(CSCCCO)cc2)cc1` [Compound 274, N-[4-Bromo-2-(4-methyl-benzylidene-hydrazinocarbonyl)-phenyl]-4-(3-hydroxy-propylsulfanylmethyl)-benzamide] and `O=C(Nc1ccc(Br)cc1C(=O)N/N=C/c1ccc(F)cc1)c1ccc(CSc2ccncc2)cc1` [Compound 256, N-[4-Bromo-2-(4-fluoro-benzylidene-hydrazinocarbonyl)-phenyl]-4-(pyridin-4-ylsulfanylmethyl)-benzamide] cannot be ordered by IC50: 1.04 µM for the first, less than 10 µM for the second.

`Cc1cccc(/C=N/NC(=O)c2cc(Cl)ccc2NC(=O)c2ccc(CN(C)CCO)cc2)c1` [Compound 414, N-[4-Chloro-2-(3-methyl-benzylidene-hydrazinocarbonyl)-phenyl]-4-{[(2-hydroxy-ethyl)-methyl-amino]-methyl}-benzamide] and `O=C(Nc1ccc(Br)cc1C(=O)N/N=C/c1cccc(Cl)c1)c1ccc(F)cc1` [Compound 107, N-[4-Bromo-2-(3-chloro-benzylidene-hydrazinocarbonyl)-phenyl]-4-fluoro-benzamide] cannot be ordered by IC50: less than 3 µM for the first, 1.08 µM for the second.

First: O=C(Nc1ccc(Br)cc1C(=O)N/N=C/c1ccc(F)cc1)c1ccc(CN2CCC(CO)CC2)cc1 [Compound 335, N-[4-Bromo-2-(4-fluoro-benzylidene-hydrazinocarbonyl)-phenyl]-4-(4-hydroxymethyl-piperidin-1-ylmethyl)-benzamide]
Second: COc1cccc(/C=N/NC(=O)c2cc(Br)ccc2NC(=O)c2ccc(CN3CCC(CCO)CC3)cc2)c1 [Compound 746, N-[4-Bromo-2-(3-methoxy-benzylidene-hydrazinocarbonyl)-phenyl]-4-[4-(2-hydroxy-ethyl)-piperidin-1-ylmethyl]-benzamide]
The IC50 of the first is 2.9-fold lower: 5.86 µM for the first, 16.8 µM for the second.

`COc1ccc(C(=O)Nc2ccc(I)cc2C(=O)N/N=C/c2ccc(C)c(C)c2)cc1OC` [Compound 208, N-[2-(3,4-Dimethyl-benzylidene-hydrazinocarbonyl)-4-iodo-phenyl]-3,4-dimethoxy-benzamide] and `COc1ccc(C(=O)Nc2ccc(N3CCOCC3)cc2C(=O)N/N=C/c2ccc(C)c(C)c2)cc1OC` [Compound 939, N-[2-(3,4-Dimethyl-benzylidene-hydrazinocarbonyl)-4-morpholin-4-yl-phenyl]-3,4-dimethoxy-benzamide] cannot be ordered by IC50: less than 0.3 µM for the first, less than 3 µM for the second.

First: COc1ccc(C(=O)Nc2ccc(Br)cc2C(=O)N/N=C/c2cccn2C)cc1OC [Compound 201, N-[4-Bromo-2-(1-methyl-1H-pyrrol-2-ylmethylene-hydrazinocarbonyl)-phenyl]-3,4-dimethoxy-benzamide]
Second: COc1ccc(C(=O)Nc2ccc(C)cc2C(=O)N/N=C/c2cccc(F)c2)cc1OC [Compound 146, N-[2-(3-Fluoro-benzylidene-hydrazinocarbonyl)-4-methyl-phenyl]-3,4-dimethoxy-benzamide]
The IC50 of the first is 5.6-fold higher: 11.1 µM for the first, 1.99 µM for the second. The second is the more potent here.

`CCOCCN(CCOCC)Cc1ccc(C(=O)Nc2ccc(Br)cc2C(=O)N/N=C/c2ccc(C)c(C)c2)cc1` [Compound 733, 4-{[Bis-(2-ethoxy-ethyl)-amino]-methyl}-N-[4-bromo-2-(3,4-dimethyl-benzylidene-hydrazinocarbonyl)-phenyl]-benzamide] and `COc1cc(OC)cc(C(=O)Nc2ccc(Br)cc2C(=O)N/N=C/c2ccc(Cl)cc2)c1` [Compound 117, N-[4-Bromo-2-(4-chloro-benzylidene-hydrazinocarbonyl)-phenyl]-3,5-dimethoxy-benzamide] cannot be ordered by IC50: less than 10 µM for the first, 0.58 µM for the second.

`CCN(CC)CCN(C)Cc1cccc(C(=O)Nc2sc3c(c2C(=O)N/N=C/c2ccc(OCCO)cc2)CCCC3)c1` [Compound 1002, 3-{[(2-Diethylamino-ethyl)-methyl-amino]-methyl}-N-{3-[4-(2-hydroxy-ethoxy)-benzylidene-hydrazinocarbonyl]-4,5,6,7-tetrahydro-benzo[b]thiophen-2-yl}-benzamide] and `CCN(CC)CCN(CCN(CC)CC)Cc1cccc(C(=O)Nc2sc3c(c2C(=O)N/N=C/c2ccc(OC)cc2)CCCC3)c1` [Compound 856, 3-{[Bis-(2-diethylamino-ethyl)-amino]-methyl}-N-[3-(4-methoxy-benzylidene-hydrazinocarbonyl)-4,5,6,7-tetrahydro-benzo[b]thiophen-2-yl]-benzamide; hydrochloride] are within 1.5-fold of each other in IC50: 2.58 µM for the first, 1.77 µM for the second.

First: CCN(CC)CCN(C)Cc1cccc(C(=O)Nc2sc3c(c2C(=O)N/N=C(\C)c2cccc(F)c2)CCCC3)c1 [Compound 1003, 3-{[(2-Diethylamino-ethyl)-methyl-amino]-methyl}-N-{3-[1-(3-fluoro-phenyl)-ethylidene-hydrazinocarbonyl]-4,5,6,7-tetrahydro-benzo[b]thiophen-2-yl}-benzamide]
Second: Cc1ccc(/C=N/NC(=O)c2cc(N3CCC(C)CC3)ccc2NC(=O)c2cccc(CSCCO)c2)cc1C [Compound 1069, N-[2-(3,4-Dimethyl-benzylidene-hydrazinocarbonyl)-4-(4-methyl-piperidin-1-yl)-phenyl]-3-(2-hydroxy-ethylsulfanylmethyl)-benzamide]
The IC50 of the first is higher: 9.12 µM for the first, less than 1 µM for the second. The second is the more potent here.

`Cc1ccc(/C=N/NC(=O)c2cc(Cl)ccc2NC(=O)c2cccc(C[S+]([O-])Cc3ccco3)c2)cc1C` (stereo not shown) [Compound 687, N-[4-Chloro-2-(3,4-dimethyl-benzylidene-hydrazinocarbonyl)-phenyl]-3-(furan-2-ylmethanesulfinylmethyl)-benzamide] and `Cc1cccc(/C=N/NC(=O)c2cc(Br)ccc2NC(=O)c2ccno2)c1` [Compound 511, Isoxazole-5-carboxylic acid [4-bromo-2-(3-methyl-benzylidene-hydrazinocarbonyl)-phenyl]-amide] cannot be ordered by IC50: less than 3 µM for the first, 2.16 µM for the second.

First: O=C(Nc1ccc(I)cc1C(=O)N/N=C/c1cccc(O)c1)c1cccc(CN2CCC(N3CCCCC3)CC2)c1 [Compound 490, 3-[1,4′]Bipiperidinyl-1′-ylmethyl-N-[2-(3-hydroxy-benzylidene-hydrazinocarbonyl)-4-iodo-phenyl]-benzamide]
Second: COc1cccc(CNNC(=O)c2cc(Br)ccc2NC(=O)c2ccc(CN3CCC(N4CCCCC4)CC3)cc2)c1 [Compound 378, 4-[1,4′]Bipiperidinyl-1′-ylmethyl-N-{4-bromo-2-[N′-(3-methoxy-benzyl)-hydrazinocarbonyl]-phenyl}-benzamide]
The IC50 of the first is lower: less than 3 µM for the first, 4.35 µM for the second.

same assay, conditions: phosphate uptake, oocytes expressing rat NaPi-2b; 300 μM, determined from inhibition curve

First: C/C(=N\NC(=O)c1ccccc1NC(=O)c1ccncc1)c1cccc(C)c1 [Compound 249, N-[2-(1-m-Toluyl-ethylidene-hydrazinocarbonyl)-phenyl]-isonicotinamide]
Second: CC(O)CN(Cc1cccc(C(=O)Nc2cscc2C(=O)N/N=C/c2ccc(Cl)c(C(F)(F)F)c2)c1)CC(C)O (stereo not shown) [Compound 978, 3-{[Bis-(2-hydroxy-propyl)-amino]-methyl}-N-[4-(4-chloro-3-trifluoromethyl-benzylidene-hydrazinocarbonyl)-thiophen-3-yl]-benzamide]
The inhibition at 300 µM of the first is lower: 41.6% for the first, 74.1% for the second.

Going from `O=C(Nc1ccc(Br)cc1C(=O)N/N=C/c1ccc(Cl)c(C(F)(F)F)c1)c1ccc(CN2CCN(c3ccccn3)CC2)cc1` [Compound 776, N-[4-Bromo-2-(4-chloro-3-trifluoromethyl-benzylidene-hydrazinocarbonyl)-phenyl]-4-(4-pyridin-2-yl-piperazin-1-ylmethyl)-benzamide] to `Cc1ccc(/C=N/NC(=O)c2cc(Br)ccc2NC(=O)c2ccc(CN3CCN(c4ccc(F)cc4)CC3)cc2)cc1C` [Compound 717, N-[4-Bromo-2-(3,4-dimethyl-benzylidene-hydrazinocarbonyl)-phenyl]-4-[4-(4-fluoro-phenyl)-piperazin-1-ylmethyl]-benzamide], the inhibition at 300 µM rises from 49.2% to 53.5%.
